Laboratory results published in patent US12139499B2, “Heteroaryl compounds for treating Huntington's disease” (PTC THERAPEUTICS, INC., priority 2018, dated 2024).

Tested on: Endogenous Huntingtin Protein
Test: Endogenous Huntingtin Protein Assay (ELISA-based MSD electrochemiluminescence)
Assay type: cell-based
Conditions: Table 1
Protocol: Compounds of Formula (I) or Formula (II) were tested using the Meso Scale Discovery (MSD) Assay provided in International Application No. PCT/US2016/066042, filed on Dec. 11, 2016 and claiming priority to U.S. Provisional Application 62/265,652 filed on Dec. 10, 2015, the entire contents of which are incorporated herein by reference.
The Endogenous Huntingtin Protein assay used in Example 1 was developed using the ELISA-based MSD electrochemiluminescence assay platform.
Endogenous Huntingtin Protein Assay
Meso Scale Discovery (MSD) 96-well or 384-well plates were coated overnight at 4° C. with MW1 (expanded polyglutamine) or MAB2166 monoclonal antibody (for capture) at a concentration of 1 μg/mL in PBS (30 μL per well). Plates were then washed three times with 300 μL wash buffer (0.05% Tween-20 in PBS) and blocked (100 μL blocking buffer; 5% BSA in PBS) for 4-5 hours at room temperature with rotational shaking and then washed three times with wash buffer.
Samples (25 μL) were transferred to the antibody-coated MSD plate and incubated overnight at 4° C. After removal of the lysates, the plate was washed three times with wash buffer, and 25 μL of #5656S (Cell signaling; rabbit monoclonal) secondary antibody (diluted to 0.25 μg/mL in 0.05% Tween-20 in blocking buffer) was added to each well and incubated with shaking for 1 Hour at room temperature. Following incubation with the secondary antibody, the wells were rinsed with wash buffer after which 25 μL of goat anti-rabbit SULFO TAG secondary detection antibody (required aspect of the MSD system) (diluted to 0.25 μg/mL in 0.05% Tween-20 in blocking buffer) was added to each well and incubated with shaking for 1 hour at room temperature. After rinsing three times with wash buffer, 150 μL of read buffer T with surfactant (MSD) were added to each empty well, and the plate was imaged on a SI 6000 imager (MSD) according to manufacturers' instructions provided for 96- or 384-well plates.

Compound	IC50 [nM]
5-{2-[(1,5-dimethyl-8-azabicyclo[3.2.1]oct-3-yl)(methyl)amino][1,3]thiazolo[5,4-d]pyrimidin-5-yl)-2-methyl-2H-indazole-7-carbonitrile [Compound 254]	≤ 100
Cn1cc2cc(-c3ccc4nc(C5=CCNCC5)sc4c3)ccc2n1 [Compound 1, 6-(2-methyl-2H-indazol-5-yl)-2-(1,2,3,6-tetrahydropyridin-4-yl)-1,3-benzothiazole]	100 to 500
Cn1cc2cc(-c3ccc4nc(C5CCNCC5)sc4c3)ccc2n1 [Compound 2, 6-(2-methyl-2H-indazol-5-yl)-2-(piperidin-4-yl)-1,3-benzothiazole]	100 to 500
CN1CC=C(c2nc3ccc(-c4ccc5nn(C)cc5c4)cc3s2)CC1 [Compound 3, 6-(2-methyl-2H-indazol-5-yl)-2-(1-methyl-1,2,3,6-tetrahydropyridin-4-yl)-1,3-benzothiazole]	500 to 1000
Cn1cc2cc(-c3nc4ccc(C5=CCNCC5)cc4s3)ccc2n1 [Compound 4, 2-(2-methyl-2H-indazol-5-yl)-6-(1,2,3,6-tetrahydropyridin-4-yl)-1,3-benzothiazole]	100 to 500
Cn1cc2cc(-c3nc4ccc(C5CCNCC5)cc4s3)ccc2n1 [Compound 5, 2-(2-methyl-2H-indazol-5-yl)-6-(piperidin-4-yl)-1,3-benzothiazole]	500 to 1000
CN1CC=C(c2ccc3nc(-c4ccc5nn(C)cc5c4)sc3c2)CC1 [Compound 6, 2-(2-methyl-2H-indazol-5-yl)-6-(1-methyl-1,2,3,6-tetrahydropyridin-4-yl)-1,3-benzothiazole]	1000 to 3000
Cn1cc2cc(-c3ccc4nc(N5CCNCC5)sc4c3)ccc2n1 [Compound 7, 6-(2-methyl-2H-indazol-5-yl)-2-(piperazin-1-yl)-1,3-benzothiazole]	1000 to 3000
CN(c1nc2ccc(-c3ccc4nn(C)cc4c3)cc2s1)C1CCNCC1 [Compound 8, N-methyl-6-(2-methyl-2H-indazol-5-yl)-N-(piperidin-4-yl)-1,3-benzothiazol-2-amine]	100 to 500
CN1CCC(c2nc3ccc(-c4ccc5nn(C)cc5c4)cc3s2)CC1 [Compound 9, 6-(2-methyl-2H-indazol-5-yl)-2-(1-methylpiperidin-4-yl)-1,3-benzothiazole]	1000 to 3000
CN1CCC(c2ccc3nc(-c4ccc5nn(C)cc5c4)sc3c2)CC1 [Compound 10, 2-(2-methyl-2H-indazol-5-yl)-6-(1-methylpiperidin-4-yl)-1,3-benzothiazole]	1000 to 3000
CN(c1ccc2nc(-c3ccc4nn(C)cc4c3)sc2c1)C1CCNCC1 [Compound 11, N-methyl-2-(2-methyl-2H-indazol-5-yl)-N-(piperidin-4-yl)-1,3-benzothiazol-6-amine]	1000 to 3000
CN(c1nc2ncc(-c3ccc4nn(C)cc4c3)cc2s1)C1CCNCC1 [Compound 12, N-methyl-6-(2-methyl-2H-indazol-5-yl)-N-(piperidin-4-yl)[1,3]thiazolo[4,5-b]pyridine-2-amine]	1000 to 3000
Cc1cc(-c2cnc3nc(N(C)C4CCNCC4)sc3c2)cc2cn(C)nc12 [Compound 13, 6-(2,7-dimethyl-2H-indazol-5-yl)-N-methyl-N-(piperidin-4-yl)[1,3]thiazolo[4,5-b]pyridin-2-amine]	500 to 1000
Cc1cc(-c2cnc3nc(NC4CCNCC4)sc3c2)cc2cn(C)nc12 [Compound 14, 6-(2,7-dimethyl-2H-indazol-5-yl)-N-(piperidin-4-yl)[1,3]thiazolo[4,5-b]pyridin-2-amine]	1000 to 3000
Cn1cc2cc(-c3cnc4nc(NC5CCNCC5)sc4c3)ccc2n1 [Compound 15, 6-(2-methyl-2H-indazol-5-yl)-N-(piperidin-4-yl)[1,3]thiazolo[4,5-b]pyridin-2-amine]	1000 to 3000
CN(c1nc2ncc(-c3ccc4nn(C)cc4c3)cc2s1)C1CC(C)(C)NC(C)(C)C1 [Compound 16, N-methyl-6-(2-methyl-2H-indazol-5-yl)-N-(2,2,6,6-tetramethylpiperidin-4-yl)[1,3]thiazolo[4,5-b]pyridin-2-amine]	500 to 1000
Cc1cc(-c2cnc3nc(N(C)C4CC(C)(C)NC(C)(C)C4)sc3c2)cc2cn(C)nc12 [Compound 17, 6-(2,7-dimethyl-2H-indazol-5-yl)-N-methyl-N-(2,2,6,6-tetramethylpiperidin-4-yl)[1,3]thiazolo[4,5-b]pyridin-2-amine]	100 to 500

Compound	IC50 [nM]
Cc1cc(-c2ccc3nc(C4=CCNCC4)sc3c2)cc2cn(C)nc12 [Compound 18, 6-(2,7-dimethyl-2H-indazol-5-yl)-2-(1,2,3,6-tetrahydropyridin-4-yl)-1,3-benzothiazole]	100 to 500
Cn1cc2cc(-c3nc4ncc(C5=CCNCC5)cc4s3)ccc2n1 [Compound 19, 2-(2-methyl-2H-indazol-5-yl)-6-(1,2,3,6-tetrahydropyridin-4-yl)[1,3]thiazolo[4,5-b]pyridine]	100 to 500
CN(c1nc2ccc(-c3ccc4nn(C)cc4c3)cc2s1)C1CC(C)(C)NC(C)(C)C1 [Compound 20, N-methyl-6-(2-methyl-2H-indazol-5-yl)-N-(2,2,6,6-tetramethylpiperidin-4-yl)-1,3-benzothiazol-2-amine]	≤ 100
Cc1cc(-c2ccc3nc(N(C)C4CC(C)(C)NC(C)(C)C4)sc3c2)cc2cn(C)nc12 [Compound 21, 6-(2,7-dimethyl-2H-indazol-5-yl)-N-methyl-N-(2,2,6,6-tetramethylpiperidin-4-yl)-1,3-benzothiazol-2-amine]	100 to 500
Cc1cc(-c2ccc3nc(C4CCNCC4)sc3c2)cc2cn(C)nc12 [Compound 22, 6-(2,7-dimethyl-2H-indazol-5-yl)-2-(piperidin-4-yl)-1,3-benzothiazole]	≤ 100
CN(c1nc2c(F)cc(-c3ccc4nn(C)cc4c3)cc2s1)C1CC(C)(C)NC(C)(C)C1 [Compound 23, 4-fluoro-N-methyl-6-(2-methyl-2H-indazol-5-yl)-N-(2,2,6,6-tetramethylpiperidin-4-yl)-1,3-benzothiazol-2-amine]	≤ 100
Cc1cc(-c2cc(F)c3nc(N(C)C4CC(C)(C)NC(C)(C)C4)sc3c2)cc2cn(C)nc12 [Compound 24, 6-(2,7-dimethyl-2H-indazol-5-yl)-4-fluoro-N-methyl-N-(2,2,6,6-tetramethylpiperidin-4-yl)-1,3-benzothiazol-2-amine]	≤ 100
CN(c1nc2ccc(-c3ccc4nn(C)cc4c3)nc2s1)C1CC(C)(C)NC(C)(C)C1 [Compound 25, N-methyl-5-(2-methyl-2H-indazol-5-yl)-N-(2,2,6,6-tetramethylpiperidin-4-yl)[1,3]thiazolo[5,4-b]pyridin-2-amine]	100 to 500
CN(c1nc2ccc(-c3ccc4nn(C)cc4c3)nc2s1)C1CCNCC1 [Compound 26, N-methyl-5-(2-methyl-2H-indazol-5-yl)-N-(piperidin-4-yl)[1,3]thiazolo[5,4-b]pyridin-2-amine]	500 to 1000
CN(c1nc2cnc(-c3ccc4nn(C)cc4c3)cc2s1)C1CCNCC1 [Compound 27, N-methyl-6-(2-methyl-2H-indazol-5-yl)-N-(piperidin-4-yl)[1,3]thiazolo[4,5-c]pyridin-2-amine]	500 to 1000
CN(C)C1CCN(c2nc3ccc(-c4ccc5nn(C)cc5c4)cc3s2)CC1 [Compound 28, N,N-dimethyl-1-[6-(2-methyl-2H-indazol-5-yl)-1,3-benzothiazol-2-yl]piperidin-4-amine]	1000 to 3000
Cn1cc2cc(-c3ccc4nc(N5CCC(N)CC5)sc4c3)ccc2n1 [Compound 29, 1-[6-(2-methyl-2H-indazol-5-yl)-1,3-benzothiazol-2-yl]piperidin-4-amine]	1000 to 3000
Cc1cc(-c2cc3sc(N(C)C4CCNCC4)nc3cn2)cc2cn(C)nc12 [Compound 30, 6-(2,7-dimethyl-2H-indazol-5-yl)-N-methyl-N-(piperidin-4-yl)[1,3]thiazolo[4,5-c]pyridin-2-amine]	100 to 500
Cc1cc(-c2cc3sc(N(C)C4CC(C)(C)NC(C)(C)C4)nc3cn2)cc2cn(C)nc12 [Compound 31, 6-(2,7-dimethyl-2H-indazol-5-yl)-N-methyl-N-(2,2,6,6-tetramethylpiperidin-4-yl)[1,3]thiazolo[4,5-c]pyridin-2-amine]	≤ 100
CN(c1nc2cnc(-c3ccc4nn(C)cc4c3)cc2s1)C1CC(C)(C)NC(C)(C)C1 [Compound 32, N-methyl-6-(2-methyl-2H-indazol-5-yl)-N-(2,2,6,6-tetramethylpiperidin-4-yl)[1,3]thiazolo[4,5-c]pyridin-2-amine]	≤ 100
Cc1cn2cc(-c3ccc4nc(N(C)C5CC(C)(C)NC(C)(C)C5)sc4c3)cc(C)c2n1 [Compound 33, 6-(2,8-dimethylimidazo[1,2-a]pyridin-6-yl)-N-methyl-N-(2,2,6,6-tetramethylpiperidin-4-yl)-1,3-benzothiazol-2-amine]	≤ 100
CN(c1nc2ccc(-c3ccc4[nH]ncc4c3)cc2s1)C1CC(C)(C)NC(C)(C)C1 [Compound 34, 6-(1H-indazol-5-yl)-N-methyl-N-(2,2,6,6-tetramethylpiperidin-4-yl)-1,3-benzothiazol-2-amine]	100 to 500
